Series [1] relates to HFF-1 cells. Description: HFF-1 host cell growth after 5 days (Trypan blue exclusion count). The format is cell-based, human. Conditions: for IC50: Homo sapiens, HFF-1, 120 h, monotherapy, HFF-1 growth, 5 days, read-out: IC50 Monotherapy HFF-1 (n = 3). As for the experimental part:
For HFF-1 IC50 evaluation, BNZ and the antidiabetic were varied as described above for the infection cultures, and cell proliferation was determined on the 5th day of growth, and the viability was determined by 0.2% Trypan blue exclusion (Corning Inc.; Corning, NY, USA). Briefly, the cells were washed twice with PBS-EDTA and later trypsinized for detachment. The cell suspension was homogenized with 150 µL of DMEM + 2% FBS, and an aliquot of 50 µL was diluted 1:1 with the solution of Trypan blue. The number of viable cells was counted using a Neubauer chamber under a microscope.
(§1) For the IC50 calculation, individual data curves were fitted to the dose–response equation: y=A1+(A2−A1)/(1+10^(logx0−x)×p), where A1 < A2; p > 0; bottom asymptote: A1 = 1; top asymptote: A2 = 2; center: logx0 = −1; hill slope: p = 0.2; or logistic equation y=A2+(A1−A2)/(1+x/x0)^p, where A1 = initial value, A2 = final value, x0 = center and p = power using the Origin 8 Software. The IC50 values were manually selected from the curves fit.

The subject of series [2] is T. cruzi epimastigotes. Conditions: cited from earlier work.
On the set-up of series [3]: method as in PMID 28673423, PMID 32592664, PMID 33043726. Conditions: ref 1, 7, 8; cited from earlier work.
Series [4] has as its system T. cruzi Querétaro strain epimastigotes. The series is described as follows: Thiol metabolites (Cys, GSH, T(SH)2) in epimastigotes by HPLC. The format is cell-based, Trypanosoma cruzi. Conditions: 1 µM drug alone, 24 h. On the procedure: Since thiol metabolite determination requires high amounts of biological material, the thiol determination content was performed in epimastigotes of the Queretaro strain. A 0.2 L culture of LIT medium was inoculated with epimastigotes at a density of 0.7 × 10^6 parasites/mL. The culture was incubated for 72 h at 28 °C, reaching, at the exponential growth phase, a concentration of 3 × 10^6 parasites/mL. The culture was separated into 8 aliquots of 25 mL, and 1 µM BNZ was added alone or in combination with 1 µM of the antidiabetic drugs. The cultures were incubated for 24 h at 28 °C. Subsequently, 1 mL of each sample was separated for protein determination, and the rest was used for thiol determination. Both samples were centrifuged at 20,817× g for 10 min; the pellets were washed twice with PBS. The pellets for protein were resuspended in 100 µL of Lowry’s solution A (2% Na2CO3, 0.4% NaOH, 0.16% Na-K tartrate, 1% SDS) and stored at −70 °C until protein determination using the Lowry method. The parasite pellets for thiol metabolite determination were immediately lysed by incubation in liquid nitrogen and stored at −70 °C.
Thiol determination was performed as described before. Cell lysates were thawed and resuspended in 90 µL of lysis buffer (20 mM Hepes, 1 mM EDTA, 0.15 mM KCl at pH 7), 20 mM DTT was added to each sample, and three cycles of freezing in liquid nitrogen and thawing at 37 °C were performed. The samples were centrifuged at 20,817× g for 10 min, and the supernatant was reduced with 2% sodium borohydride (NaBH4) and incubated for 10 min on ice. Then, perchloric acid was added at a final concentration of 3%, and the sample was centrifuged at 20,187× g for 2 min. The supernatant was filtered through a syringe-driven filter unit (0.45 µm) (Millipore; Carrigtwohill, County Cork, Ireland) and 20 µL of the eluate was injected in a high-performance liquid chromatography (HPLC) apparatus (Waters; Milford, MA, USA). The metabolites were separated in a C18 reverse-phase column (Altima, Columbia, MD, USA) using a mixture of acetonitrile—0.1% trifluoroacetic acid and a flux of 0.5 mL/min. The thiol metabolites were post-column derivatized with 0.1 mM di-thio-bis nitrobenzoic acid (DTNB), and the absorbance was detected at 412 nm with a UV-Vis detector coupled to the HPLC apparatus.

The subject of series [5] is T. cruzi Querétaro strain trypomastigotes. The series is described as follows: In vitro infection of HFF-1 monolayers with trypomastigotes; release of trypomastigotes on the 5th day. The format is cell-based. Conditions: Trypanosoma cruzi; for IC50: HFF-1, monotherapy, release of trypomastigotes, Queretaro strain, 5th day, read-out: IC50 Monotherapy T. cruzi i.v. Infection.
Description: To evaluate the effects of the antidiabetics alone, a model of in vitro infection with trypomastigotes of monolayers of human foreskin fibroblasts 1 (HFF-1) was used as described in the methodology; the criterium to determine efficacy was the ability to decrease the trypomastigotes’ release after the 4th–5th day post-infection. The T. cruzi Querétaro strain (TBAR/MX/0000/Querétaro) was used, which is classified in the Tc1 group, and is characterized by its high degree of virulence.
In 24-well tissue culture plates, 2 × 10^4 HFF-1 cells in 0.5 mL of DMEM + 10% FBS were deposited in each well and incubated at 37 °C for 24 h for adherence. Next, the incubation medium was changed to DMEM + 2% FBS (0.5 mL), and 3 × 10^5 trypomastigotes were added to infect cells for 2 h at 37 °C. After the incubation, the cells were vigorously washed three times with DMEM + 2% FBS to remove uninternalized trypomastigotes, taking care to preserve the monolayer integrity. Then, the infected cells were incubated in DMEM + 2% FBS for 4–5 days in the absence or presence of BNZ (0, 0.05, 0.1, 0.2, 0.5 µM) and antidiabetics (0, 1, 10, 25, 50 µM) in monotherapy; the drug compounds were purchased from SIGMA. For bi-therapy, the same concentrations of BNZ were used in the presence of 0.5 or 1 µM of antidiabetics. […] In every independent assay, a control of infected cells without BNZ or antidiabetics was always included, which served as no treatment. The number of released mobile trypomastigotes on the 5th day was determined by light microscopy using a Neubauer chamber.
as §1

Series [6] has as its system T. cruzi Ninoa strain. Description: Short-term monotherapy in mice infected with T. cruzi; blood trypomastigote count. The format is in vivo, CD1 mice. Conditions: single dose 100 mg/kg, intragastric, at peak of parasitemia, 8 h compared to time 0. On the procedure: The effect of the antidiabetic drugs and BNZ in the clearance of blood trypomastigotes in mice infected with T. cruzi in acute drug treatment in monotherapy was evaluated. Trypanosoma cruzi Ninoa strain was used for these experiments; this strain is classified in the Tc1 group like the Querétaro strain [27]; Ninoa is characterized by lower virulence and therefore lower mortality in mice compared to the Querétaro strain [28]. However, epimastigotes of Ninoa strain are more resistant to BNZ [27]. Then, the T. cruzi Ninoa strain seems to be a more appropriate parasitic source to evaluate drug susceptibility in mice.
Mice of the CD1 strain were infected with Ninoa strain (MHOM/MX/1994/Ninoa) following modified protocols previously reported. Briefly, blood trypomastigotes obtained from an infected mouse were diluted with 0.9% saline solution at a density of 1 × 10^5 trypomastigotes/mL, and 0.1 mL were intraperitoneally inoculated in mice weighing 30–40 g. […] After reaching a parasitemia peak of 22 × 10^6 blood trypomastigotes/mL (12–18 days post-inoculation), the mice were separated into 5 groups of 3 mice each for drug treatment (for bioethical requirements, the number of animals used was kept at a minimum, and 3 mice per group was sufficient to perform statistical analysis). BNZ and antidiabetic drugs at a concentration of 100 mg/kg weight; doses of 3.16–3.79 mg (depending on the weight of the mice) were administered, diluted in 0.5 mL of vehicle (Arabic gum at 4%, diluted in purified water) using an intragastric tube. Then, 5 µL of blood were immediately extracted from the caudal vein (t = 0), and blood sampling was performed every 2 h up to 8 h. Trypomastigotes were counted using a modified protocol of that reported by Pizzi–Brenner, as reported before. […] The criterion for evaluating efficacy was the percentage of trypanocidal effect at 8 h compared to time 0.

In series [7] the test system is Leishmania. Conditions: alone; cited from earlier work.
Series [8] relates to Echinococcus granulosus. Details: method as in PMID 29190739. Conditions: monotherapy; cited from earlier work.
In series [9] the test system is Leishmania donovani promastigotes. On the set-up: method as in PMID 30827222. Conditions: ref 23; cited from earlier work.
Setting [10] is: ref 15, read-out: IC50 on the growth of epimastigotes.

Consider five molecules from article PMC11768481 (Pharmaceuticals, 2024).

Like-named read-outs stand apart in the source and are kept apart here.

As for `O=C(Cn1ccnc1[N+](=O)[O-])NCc1ccccc1` [BNZ, benznidazole], the “decrease of the growth of host cells” value in series [1] (0.26 µM BNZ in monotherapy) is 20%. Also, the IC50 in [1] is 0.9 ± 0.09 µM; in [2] (CLBrener strain, read-out: IC50 on growth of epimastigotes), 5.54 µM; in series [2] (Ninoa strain, read-out: IC50 on growth of epimastigotes), 8.21 µM; in series [2] (Querétaro strain, read-out: IC50 on growth of epimastigotes), 4.29 µM; in [2] (ref 25, read-out: IC50 on the growth of epimastigotes) it was 12 ± 2 µM; in series [2] (ref 38, read-out: IC50 on the growth of epimastigotes), 9.4 ± 1.3 µM. The IC50 in series [5] worked out at 0.26 ± 0.01 µM. In addition, the “rate of treatment interruption” value in series [3] is 9–29%. Besides, the Cys level result in series [4] is on record as “slightly decrease”. Besides, the “T(SH)2 level” value in series [4] was “not observed”. Also, in series [5] (HFF-1, read-out: inhibition of infection), the inhibition at 0.2 µM was found to be 40%. For the same molecule, the “decrease of the infection (blood trypomastigotes)” value (“decrease of the infection” for short) in series [6] was found to be 80%.
Regarding `COc1ccc(Cl)cc1C(=O)NCCc1ccc(S(=O)(=O)NC(=O)NC2CCCCC2)cc1` [GBD, glyburide], the IC50 in series [2] (setting [10]) is 66 µM. Besides, in series [4], the Cys level entry is given as “increased”, the GSH level entry was “decreased” and the “T(SH)2 level” value was “decreased”. The IC50 in [5] was found to be 8.4 ± 6.3 µM. Besides, the “effect on Leishmania infection” value in series [7] was “decreased the infection”. Moreover, the “activity on Echinococcus granulosus infection in mice” value in [8] is listed as “anti-helmintic activity”. In addition, the “growth of Leishmania donovani promastigotes” value in [9] is “decreased their growth”. The “decrease of the infection” value in [6] is reported as 60%.
Consider `COc1ccc2c(c1)C(=O)N(CCc1ccc(S(=O)(=O)NC(=O)NC3CCCCC3)cc1)C(=O)C2(C)C` [GLQ, gliquidone], for which the IC50 in series [2] (setting [10]) is 12 µM. Further, in series [4], the Cys level entry is on record as “increased”, the GSH level entry is “decreased” and the “T(SH)2 level” value is given as “decreased”. In series [5], the IC50 turned out to be 7.6 ± 2 µM. The “decrease of the infection” value in series [6] is given as “lower effect than BNZ”.
Turning to `Cc1cnc(C(=O)NCCc2ccc(S(=O)(=O)NC(=O)NC3CCCCC3)cc2)cn1` [GPZ, glipizide], the IC50 is 35 ± 19 µM in series [1], 13.4 µM in [2] (setting [10]) and 14.3 ± 7 µM in series [5]. Also, the Cys level result in series [4] is “decreased”. In [4], the “T(SH)2 level” value is recorded as “increased”. Moreover, the “decrease in Cys” value in series [4] is reported as approximately 50%. Further, the “decrease of the infection” value in [6] was 60%.
In the case of `CC1CS(=O)(=O)CCN1/N=C/c1ccc([N+](=O)[O-])o1` (stereo not drawn) [nifurtimox], the “rate of treatment interruption” value in series [3] is on record as 14–75%.

Broadly, the IC50 is the concentration that inhibits the measured activity by half. As usually defined, the inhibition is the percentage by which the read-out fell short of the control.
